A short description of the data set: gradient 5% acetonitrile 3 min, to 50% in 2 min, to 85% in 15 min, held 3 min, 100 µL/min. The following applies: column: Zorbax Extend-C18 2.1 x 50 mm; eluents: water / acetonitrile, 0.1% formic acid. In a few lines: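 Retention time was recorded from adduct peaks, which were picked computationally and each inspected manually. Pure standards ran in mixtures of ~100 molecules on HPLC coupled to a quadrupole time-of-flight mass spectrometer, in positive and negative ionization mode, through a Zorbax Extend-C18 column (2.1 × 50 mm, 1.8 μm) at 100 μL/min. Eluents were water and acetonitrile, each with 0.1% formic acid.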
For the molecule `CCN1CCN(c2ccc(-c3ccc(C)c(S(=O)(=O)N4CCOCC4)c3)nn2)CC1`, the RP-LC retention time is 612 s.

`O=C(Cc1cc(-c2ccco2)on1)Nc1ccc(F)c(F)c1F` had an RP-LC retention time of 838 s.

`CC(C)(C)c1csc(-c2csc(S(=O)(=O)Nc3ccc(F)c(F)c3)c2)n1` showed an RP-LC retention time of 1260 s.

`COCCN1C(=O)c2cccn2CC1CNC(=O)c1sccc1C` (configuration not stated) registered an RP-LC retention time of 689 s.

`O=C(NCc1ccco1)c1cnn2c(-c3ccc(Cl)cc3)ccnc12` showed an RP-LC retention time of 945 s.

In turn, `COc1ccccc1-c1nnc(C2CCN(S(C)(=O)=O)CC2)s1` returned an RP-LC retention time of 734 s.

Turning to `CN(C)C(=O)c1ccc2c(c1)nc(CN1CCN(C(=O)c3ccco3)CC1)n2C`, the RP-LC retention time stood at 575 s.

The molecule `Cc1ccc2c(Nc3cccc(C(C)C)c3)c(C(=O)N3CCCCC3C)cnc2n1` (configuration not stated) showed an RP-LC retention time of 720 s.

With `Cc1nn(-c2ccccc2)c(C)c1S(=O)(=O)N1CCC(C(=O)Nc2ccccc2Cl)CC1`, the RP-LC retention time was determined as 995 s.

In turn, `CCn1cnc2ccc(-c3noc(COc4ccccc4)n3)cc21` came in with an RP-LC retention time of 742 s.

Molecule `COc1ccc(-n2ccn3cc(-c4cc(OC)ccc4OC)nc3c2=O)cc1` registered an RP-LC retention time of 828 s.

The molecule `Cn1ncc2c3ccccc3n(CCCC(=O)NCc3ccc4c(c3)OCO4)c2c1=O` came in with an RP-LC retention time of 751 s.

The molecule `COc1ccccc1OCC1c2ccsc2CCN1C(=O)CN(CC1CC1)C(C)=O` (configuration not stated) had an RP-LC retention time of 828 s.

Take `CCOC(=O)C1CCN(C(=O)c2sc(-c3cn(C(C)C)c4ncccc34)nc2C)CC1`: the RP-LC retention time stood at 961 s.

`O=C(NCCCn1cccn1)C1CCN(c2nnc3ccc(Cl)cn23)CC1` registered an RP-LC retention time of 618 s.

In turn, `Cc1ccc(-n2nc(C)c3sc(N4CCCC(C(=O)NC(C)CCc5ccccc5)C4)nc32)cc1` (configuration not stated) registered an RP-LC retention time of 1300 s.

On to `COC[C@@H]1CN(S(=O)(=O)c2ccc(C#N)cc2)C[C@H]1c1ccccn1`, for which the RP-LC retention time came out at 746 s.

Molecule `CCOCC(=O)Nc1ccc2c(c1)Sc1ncccc1C(=O)N2CC` came in with an RP-LC retention time of 697 s.

Take `COC(=O)c1c(C)[nH]c(C(=O)N2CCC(CC(=O)NCc3ccc(F)cc3)CC2)c1C`: the RP-LC retention time worked out at 727 s.

Consider `COc1cccc(NC(=O)C2CCCN(S(=O)(=O)c3c[nH]c(C(=O)N4CCCCCC4)c3)C2)c1` (configuration not stated), for which the RP-LC retention time was found to be 882 s.

`Cc1csc(NC(=O)c2sc3nc(-c4cccc([N+](=O)[O-])c4)cn3c2C)n1` showed an RP-LC retention time of 800 s.

In the case of `CCn1ccc(NC(=O)NC2CCCCC2)n1`, the RP-LC retention time worked out at 779 s.

As to `CC(C)(C)CC(=O)N1CCCC(CCc2nnc(C3CCOCC3)o2)C1` (configuration not stated), the RP-LC retention time stood at 758 s.

`CN(C)CCNC(=O)C1CCc2sc(C(=O)N3CCOCC3)cc2C1` (configuration not stated): the RP-LC retention time worked out at 551 s.

`Cc1noc2ncn(CC(=O)Nc3ccc(F)cc3)c(=O)c12`: the RP-LC retention time is 735 s.

In the case of `CCOC(=O)c1nc(NCCc2ccccc2Cl)c2c(C)noc2n1`, the RP-LC retention time is 904 s.

Consider `O=C(N[C@@H](COc1ccc2[nH]c(=O)[nH]c2c1)c1ccccc1)c1cccn(Cc2ccc(F)c(F)c2)c1=O`, for which the RP-LC retention time is 893 s.

`CN1c2ccccc2C(=O)NC12CCN(C(=O)Nc1cccc(Cl)c1)CC2`: the RP-LC retention time was determined as 804 s.

Take `Cc1ccccc1Nc1c(-c2ccccc2O)nc2ccccn12`: the RP-LC retention time turned out to be 701 s.

With `Cc1oc2ccn(Cc3ccccc3F)c(=O)c2c1C(=O)NCc1cc(F)cc(F)c1`, the RP-LC retention time came out at 827 s.

`COc1ccc(C(=O)NC2CCN(c3cc(-c4ccccc4)[nH]n3)C2)cc1OC` (configuration not stated) registered an RP-LC retention time of 663 s.

`CCCn1c(=O)sc2cc(S(=O)(=O)N3CCC(C(=O)Nc4ccc(CC)cc4)CC3)ccc21` displayed an RP-LC retention time of 929 s.

The values above are taken from the METLIN SMRT retention time set (Domingo-Almenara et al. 2019).
